In PubChem BioAssay AID328 (DTP/NCI, 2004):
Where “and” joins values, the source holds several entries; their conditions need not be identical. Equal values may be shown once. Inconclusive results and toxic doses are left out. Rule for the calls: active = survival T/C of 150% or more; inactive = T/C below 125% in these data.

System: BDF1 mice, P388 leukemia ip, median survival T/C
Experiment: NCI In Vivo Anticancer Drug Screen. Data for tumor model P388 Leukemia (intraperitoneal) in B6D2F1 (BDF1) mice
Conditions: endpoint: median survival time, higher = longer survival
Outline: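 Reported as T/C, where T is the survival measurement in dosed animals and C the same measurement in vehicle controls.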

[1] = dose: 50.0 mg/kg/injection, schedule: Q01DX009 (ip), vehicle: saline with Tween-80
[2] = dose: 100.0 mg/kg/injection, schedule: Q01DX009 (ip), vehicle: saline with Tween-80
[3] = dose: 400.0 mg/kg/injection, schedule: Q01DX009 (ip), vehicle: water
[4] = dose: 100.0 mg/kg/injection, schedule: Q04DX003 (ip), vehicle: saline with Tween-80
[5] = dose: 200.0 mg/kg/injection, schedule: Q04DX003 (ip), vehicle: saline with Tween-80
[6] = dose: 400.0 mg/kg/injection, schedule: Q04DX003 (ip), vehicle: saline with Tween-80
[7] = dose: 2.0 mg/kg/injection, schedule: Q01DX009 (ip), vehicle: saline
[8] = dose: 200.0 mg/kg/injection, schedule: Q01DX009 (ip), vehicle: saline with Tween-80

Measured: T/C

C[CH2][Pb]([CH2]C)([CH2]C)[O]C(=O)CBr
inactive: dose: 2.0 mg/kg/injection, schedule: Q01DX009 (ip), vehicle: other 109 % of control | dose: 4.5 mg/kg/injection, schedule: Q01DX009 (ip), vehicle: other 101 % of control | dose: 6.0 mg/kg/injection, schedule: Q01DX009 (ip), vehicle: Klucel (hydroxypropylcellulose) (HPC) 120 % of control | dose: 12.0 mg/kg/injection, schedule: Q01DX009 (ip), vehicle: Klucel (hydroxypropylcellulose) (HPC) 103 % of control

Cc1cc(C)c(C)c(Br)c1
inactive: [1] 100 % of control | [2] 104 % of control

[N-]=[N+]=CC(=O)NCC(=O)NO
active: dose: 180.0 mg/kg/injection, schedule: Q01DX009 (ip), vehicle: water 172 % of control | dose: 270.0 mg/kg/injection, schedule: Q01DX009 (ip), vehicle: water 172 % of control | [3] 204 % of control

O=C(Cn1ccc(=O)[nH]c1=O)N1CCOCC1
inactive: dose: 100.0 mg/kg/injection, schedule: Q01DX009 (ip), vehicle: water 104 % of control | dose: 200.0 mg/kg/injection, schedule: Q01DX009 (ip), vehicle: water 104 % of control | [3] 95 % of control

Nc1ccccc1-c1ccccc1N
inactive: dose: 100.0 mg/kg/injection, schedule: Q04DX003 (ip), vehicle: Klucel (hydroxypropylcellulose) (HPC) 100 % of control | dose: 200.0 mg/kg/injection, schedule: Q04DX003 (ip), vehicle: Klucel (hydroxypropylcellulose) (HPC) 90 % of control

CO[C@H](C)[C@](O)(C(=O)OCC1=CC[N+]2([O-])CC[C@H](O)[C@@H]12)C(C)C (stereo partly specified)
inactive: dose: 40.0 mg/kg/injection, schedule: Q01DX010 (ip), vehicle: saline 100 % of control | dose: 80.0 mg/kg/injection, schedule: Q01DX010 (ip), vehicle: saline 105 % of control | dose: 160.0 mg/kg/injection, schedule: Q01DX010 (ip), vehicle: saline 116 % of control | dose: 200.0 mg/kg/injection, schedule: Q01DX007 (ip), vehicle: water 117 % of control | dose: 400.0 mg/kg/injection, schedule: Q01DX007 (ip), vehicle: water 119 % of control | dose: 800.0 mg/kg/injection, schedule: Q01DX007 (ip), vehicle: water 119 % of control | dose: 1600.0 mg/kg/injection, schedule: Q01DX007 (ip), vehicle: water 94 % of control

Cc1cc2nc(Cc3nc4cc(C)c(C)cc4[nH]3)[nH]c2cc1C
inactive: [4] 95 % of control | [5] 90 % of control | [6] 95 % of control

CC1(C)CCC2(CC1)CC(=O)OC2=O
inactive: [4] 95 % of control | [5] 87 % of control | [6] 104 % of control

COC(=O)CC1CCN(C(=O)OCc2ccccc2)C(Cc2c[nH]c3ccccc23)C1=O (stereo unspecified)
inactive: [7] 105 % of control | dose: 3.0 mg/kg/injection, schedule: Q01DX009 (ip), vehicle: saline 109 % of control | dose: 4.0 mg/kg/injection, schedule: Q01DX009 (ip), vehicle: saline 114 % of control | dose: 8.0 mg/kg/injection, schedule: Q01DX009 (ip), vehicle: saline 98 % of control | dose: 10.0 mg/kg/injection, schedule: Q01DX009 (ip), vehicle: saline 109 % of control | dose: 16.0 mg/kg/injection, schedule: Q01DX009 (ip), vehicle: saline 102 % of control | dose: 30.0 mg/kg/injection, schedule: Q01DX009 (ip), vehicle: saline 104 % of control | dose: 32.0 mg/kg/injection, schedule: Q01DX009 (ip), vehicle: saline 95 % of control | dose: 60.0 mg/kg/injection, schedule: Q01DX009 (ip), vehicle: saline 109 % of control

Cc1[nH]nc(C(N)=O)c1N=NN(C)C
active: dose: 132.0 mg/kg/injection, schedule: Q04DX003 (ip), vehicle: saline with Tween-80 182 % of control | [5] 186 % of control
inactive: dose: 300.0 mg/kg/injection, schedule: Q04DX003 (ip), vehicle: saline with Tween-80 100 % of control

O=C1CC(=O)N(c2ccccc2)C(=O)N1
inactive: [2] 94 % of control | [8] 88 % of control | dose: 400.0 mg/kg/injection, schedule: Q01DX009 (ip), vehicle: saline with Tween-80 106 % of control

COc1ccc2nc3cc(Cl)ccc3c(Nc3ccc(O)c(CN(CCCl)CCCl)c3)c2c1
inactive: dose: 0.06 mg/kg/injection, schedule: Q01DX009 (ip), vehicle: saline with Tween-80 105 % of control | dose: 0.09 mg/kg/injection, schedule: Q01DX009 (ip), vehicle: saline with Tween-80 99 % of control | dose: 0.13 mg/kg/injection, schedule: Q01DX009 (ip), vehicle: saline with Tween-80 89 % of control | dose: 0.22 mg/kg/injection, schedule: Q04DX003 (ip), vehicle: saline 100 % of control | dose: 0.33 mg/kg/injection, schedule: Q04DX003 (ip), vehicle: saline 118 % of control | [7] 104 % of control
active: dose: 0.5 mg/kg/injection, schedule: Q01DX009 (ip), vehicle: saline 177 % of control | dose: 1.0 mg/kg/injection, schedule: Q01DX009 (ip), vehicle: saline 163 % of control | dose: 1.0 mg/kg/injection, schedule: Q04DX003 (ip), vehicle: saline 159 % of control | dose: 1.33 mg/kg/injection, schedule: Q04DX003 (ip), vehicle: saline 154 % of control | dose: 2.0 mg/kg/injection, schedule: Q04DX003 (ip), vehicle: saline 158 % of control and 181 % of control | dose: 3.0 mg/kg/injection, schedule: Q04DX003 (ip), vehicle: saline 158 % of control and 179 % of control | dose: 4.5 mg/kg/injection, schedule: Q04DX003 (ip), vehicle: saline 195 % of control | dose: 6.7 mg/kg/injection, schedule: Q04DX003 (ip), vehicle: saline 179 % of control | dose: 10.0 mg/kg/injection, schedule: Q04DX003 (ip), vehicle: saline 183 % of control

CCN(CC)CCCC(C)Nc1ncnc2oc(C)c(C)c12 (stereo unspecified)
inactive: dose: 6.25 mg/kg/injection, schedule: Q01DX009 (ip), vehicle: saline with Tween-80 95 % of control | dose: 12.5 mg/kg/injection, schedule: Q01DX009 (ip), vehicle: saline with Tween-80 100 % of control | dose: 25.0 mg/kg/injection, schedule: Q01DX009 (ip), vehicle: saline with Tween-80 100 % of control

C/C=C(/Cl)c1c(C)cc(C)cc1C
inactive: [2] 108 % of control | [4] 100 % of control | [8] 108 % of control | [5] 111 % of control | [6] 103 % of control

c1ccc(SCC2c3ccccc3Nc3ccccc32)cc1
inactive: dose: 100.0 mg/kg/injection, schedule: Q01DX001 (ip), vehicle: saline with Tween-80 109 % of control | dose: 200.0 mg/kg/injection, schedule: Q01DX001 (ip), vehicle: saline with Tween-80 114 % of control | dose: 400.0 mg/kg/injection, schedule: Q01DX001 (ip), vehicle: saline with Tween-80 109 % of control

O=S(=O)(O)O.[N-]=C(N)/N=C(\[NH-])N.[N-]=C(N)/N=C(\[NH-])N.[N-]=C(N)NC(=[N-])N.[Rh+3]
inactive: dose: 6.25 mg/kg/injection, schedule: Q01DX009 (ip), vehicle: saline 104 % of control | dose: 12.5 mg/kg/injection, schedule: Q01DX009 (ip), vehicle: saline 95 % of control | dose: 12.5 mg/kg/injection, schedule: Q04DX003 (ip), vehicle: saline 100 % of control | dose: 25.0 mg/kg/injection, schedule: Q01DX009 (ip), vehicle: saline 119 % of control | dose: 25.0 mg/kg/injection, schedule: Q04DX003 (ip), vehicle: saline 109 % of control | dose: 50.0 mg/kg/injection, schedule: Q04DX003 (ip), vehicle: saline 118 % of control

COc1ccccc1CC(C)N (stereo unspecified)
inactive: dose: 20.0 mg/kg/injection, schedule: Q01DX009 (ip), vehicle: saline with Tween-80 87 % of control | dose: 80.0 mg/kg/injection, schedule: Q01DX009 (ip), vehicle: saline with Tween-80 91 % of control

S=C(Cc1ccccc1)N1CCN(c2ccc(Cl)cc2)CC1
inactive: [1] 104 % of control | [2] 100 % of control | [8] 100 % of control

CC1CN1P(=O)(N1CC=CCC1)N1CC1C (stereo unspecified)
active: dose: 50.0 mg/kg/injection, schedule: Q01DX009 (ip), vehicle: saline 162 % of control
inactive: dose: 9.38 mg/kg/injection, schedule: Q01DX009 (ip), vehicle: saline 112 % of control | dose: 18.7 mg/kg/injection, schedule: Q01DX009 (ip), vehicle: saline 116 % of control | dose: 75.0 mg/kg/injection, schedule: Q01DX009 (ip), vehicle: saline 91 % of control | dose: 100.0 mg/kg/injection, schedule: Q04DX003 (ip), vehicle: saline 107 % of control

COc1ccc2c(c1)N=C1CCCC3CCCCC123 (stereo unspecified)
inactive: [4] 99 % of control | [5] 114 % of control
